# Key:
# [1] = test system: male Hilltop ICR-derived mice; assay: Maximal electroshock test in mice; format: in vivo; settings: Mus musculus, ip, 0.25 h; dosed intraperitoneally in saline 15 minutes prior to transcorneal maximal electroshock (50 milliamps, 0.2 seconds); antagonism of tonic extension; read-out: ED50 (95% confidence limits)
# Method: This test was performed in the standard manner, essentially as described by Swinyard et al., J. Pharm. Exp. Ther., Vol. 106, pp. 319-330 (1952). Groups of 8-10 male Hilltop ICR-derived mice weighing 20-30 grams were dosed intraperitoneally with a solution or suspension of drug in saline 15 minutes prior to a transcorneal maximal electroshock (50 milli- amps, 0.2 seconds). […] An active compound was capable of antagonizing the occurrence of the tonic extension which occurred immediately after the electroshock.
# [2] = Acute oral toxicity in mice; settings: mouse, in vivo; single oral dose by stomach tube, aqueous carboxymethyl cellulose vehicle, observed for three weeks
# Method: The following example illustrates acute oral toxicity of a representative compound.
# Protocol: The test compound, l-[2-(2-naphthyl)-2-(methoxy)ethyl'imidazole hydrochloride, is suspended in an aqueous carboxymethyl cellulose suspending vehicle. Concentrations are adjusted so that doses can be given in volumes of 10 ml./kg. body weight. Groups of mice comprising six Swiss-Webster male mice in each group are used. A single oral dose, by stomach tube, of a final dosage of test compound is administered to the mice in each group. Each group receives a different dosage, one group serving as a control. After administration the mice are observed for a three week period.
smiles,measurement,setting,value
COC(Cn1ccnc1)c1cccc2ccccc12 (stereo not drawn) [1-[2-(1-naphthyl)-2-(methoxy)ethyl]imidazole],ED50,[1],19.4 mg/kg
CCCCOC(Cn1ccnc1)c1cccc2ccccc12 (stereo not drawn) [1-[2-(1-naphthyl)-2-(n-butoxy)ethyl]imidazole],ED50,[1],16 mg/kg
Cc1ccccc1OC(Cn1ccnc1)c1ccc2ccccc2c1 (stereo not drawn) [1-[2-(2-naphthyl)-2-(2-methylphenoxy)ethyl]imidazole],ED50,[1],32.6 mg/kg
CCOC(Cn1ccnc1)c1ccc2ccccc2c1 (stereo not drawn) [1-[2-(2-naphthyl)-2-(ethoxy)ethyl]imidazole],ED50,[1],11.4 mg/kg
COC(Cn1ccnc1)c1ccc2ccccc2c1.Cl (stereo not drawn) [1-[2-(2-naphthyl)-2-(methoxy)ethyl]imidazole hydrochloride],ED50,[1],10.4 mg/kg
same,LD50 at 504 h,[2],~100 mg/kg
CSC(Cn1ccnc1)c1ccc2ccccc2c1 (stereo not drawn) [1-[2-(2-naphthyl)-2-(methylthio)ethyl]imidazole],ED50,[1],37.1 mg/kg
c1ccc(OC(Cn2ccnc2)c2ccc3ccccc3c2)cc1 (stereo not drawn) [1-[2-(2-naphthyl)-2-(phenoxy)ethyl]imidazole],ED50,[1],15.1 mg/kg
Cl.Clc1ccc(OC(Cn2ccnc2)c2ccc3ccccc3c2)cc1 (stereo not drawn) [1[2-(2-naphthyl)-2-(4-chlorophenoxy)ethyl]imidazole hydrochloride],ED50,[1],46.3 mg/kg

# Reference: patent publication EP0013786A1, “Imidazole derivatives, pharmaceutical compositions containing them and their preparation” (SYNTEX (U.S.A.) INC., priority 1979, dated 1980)
